Key:
[1] = Stability of PTH or TGPTH in buffer (spiked samples, direct ELISA); assay type: physicochemical; conditions: 0.5 μg/mL, 37° C., distilled water, phosphate buffer saline, tris-buffer saline
Method: For the first release assay, a fibrin matrix of 50 μl with 0.1 mg PTH or TGPTH per ml fibrin matrix was incubated at 37° C. in 10 ml buffer. Therefore, the concentration of PTH or TGPTH in the buffer in case of a total release would be 0.5 μg PTH or TGPTH/mL fibrin matrix. In order to compare the stability of PTH or TGPTH during the assay, samples of PTH or TGPTH were diluted directly in the buffer to a concentration of 0.5 μg PTH or TGPTH/mL fibrin matrix. Different buffers were tested: distilled water, phosphate buffer saline, tris-buffer saline.
Aliquots were taken at days 0, 1, 2, 4 and 6 and analysed by direct ELISA. […] Therefore, no conclusion could be made on the release data. The PTH stability was certainly affected by its low concentration and the buffers that were not optimal.
The release experiment was repeated by using a stabilizing buffer containing 50 mM mannitol in a 10 mM sodium acetate buffer. In addition, the buffer was exchanged every 2 days in order to prevent any degradation of peptide. […] The concentration of PTH or TGPTH in the buffer in case of a total release would be 100 μg/mL fibrin matrix (200 times more than before). […] Samples were collected every 2 to 4 days (with a change of buffer) during 2 weeks and analysed by direct ELISA. […]

[2] = molecular target: T1, parathyroid hormone receptor (Homo sapiens, UniProt Q03431); test: Reporter gene assay for bioactivity of PTH fusion peptides; assay type: cell-based; conditions: luciferase reporter linked to PTH receptor promoter; equal amounts; compared to international 84 amino acid standard
T1 construct: endogenous in cells; transfected only with a luciferase reporter plasmid driven by the PTH receptor promoter
T1 sequence (Q03431 27-593): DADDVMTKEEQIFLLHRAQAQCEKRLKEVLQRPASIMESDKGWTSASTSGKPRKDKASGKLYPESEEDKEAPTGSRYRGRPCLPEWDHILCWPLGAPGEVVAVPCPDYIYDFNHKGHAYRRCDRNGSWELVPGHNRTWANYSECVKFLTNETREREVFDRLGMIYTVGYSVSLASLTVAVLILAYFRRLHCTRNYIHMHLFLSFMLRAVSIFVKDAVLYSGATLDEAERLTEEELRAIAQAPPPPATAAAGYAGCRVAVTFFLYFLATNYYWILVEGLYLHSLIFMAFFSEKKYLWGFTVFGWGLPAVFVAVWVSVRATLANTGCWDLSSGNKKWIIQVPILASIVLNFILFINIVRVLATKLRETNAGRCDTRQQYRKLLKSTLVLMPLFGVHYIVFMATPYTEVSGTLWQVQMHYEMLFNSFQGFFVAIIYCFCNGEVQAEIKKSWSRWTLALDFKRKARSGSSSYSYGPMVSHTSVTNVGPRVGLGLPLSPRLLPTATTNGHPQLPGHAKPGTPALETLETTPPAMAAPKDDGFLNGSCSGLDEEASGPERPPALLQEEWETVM
Method: Cells transfected with a reporter gene linked to a promoter for a PTH receptor were treated with equal amounts of either PTH1-34, TG-pl-PTH1-34 (described hereinafter) or the international 84 amino acid standard. The inhibition of expression of the luciferase reporter gene was measured and compared to transfected cells that were not exposed to PTH in solution (control).
To study the bioactivity of the PTH fusion peptides, a reporter gene assay was established. In this assay, a plasmid that contains luciferase reporter gene which is linked to the promoter for the parathyroid hormone receptor is transfected into cells. Then, if the cell is exposed to PTH and the PTH subsequently binds to its receptor on the cell, a signal cascade, directed through elevated cAMP levels, is initiated. Through a natural feedback regulation, this then leads to a reduction of PTH receptor levels. As the reduction is directed through the promoter, it also then leads to a decrease in production of the linked reporter gene. Using this assay, the activity of both native PTH1-34 as well as TG-pl-PTH1-34 were studied and compared to an international standard.

CC[C@H](C)[C@H](NC(=O)[C@H](CCC(=O)O)NC(=O)[C@H](CO)NC(=O)[C@@H](NC(=O)[C@@H](N)CO)C(C)C)C(=O)N[C@@H](CCC(N)=O)C(=O)N[C@@H](CC(C)C)C(=O)N[C@@H](CCSC)C(=O)N[C@@H](Cc1cnc[nH]1)C(=O)N[C@@H](CC(N)=O)C(=O)N[C@@H](CC(C)C)C(=O)NCC(=O)N[C@@H](CCCCN)C(=O)N[C@@H](Cc1cnc[nH]1)C(=O)N[C@@H](CC(C)C)C(=O)N[C@@H](CC(N)=O)C(=O)N[C@@H](CO)C(=O)N[C@@H](CCSC)C(=O)N[C@@H](CCC(=O)O)C(=O)N[C@@H](CCCN=C(N)N)C(=O)N[C@H](C(=O)N[C@@H](CCC(=O)O)C(=O)N[C@@H](Cc1c[nH]c2ccccc12)C(=O)N[C@@H](CC(C)C)C(=O)N[C@@H](CCCN=C(N)N)C(=O)N[C@@H](CCCCN)C(=O)N[C@@H](CCCCN)C(=O)N[C@@H](CC(C)C)C(=O)N[C@@H](CCC(N)=O)C(=O)N[C@@H](CC(=O)O)C(=O)N[C@H](C(=O)N[C@@H](Cc1cnc[nH]1)C(=O)N[C@@H](CC(N)=O)C(=O)N[C@@H](Cc1ccccc1)C(=O)O)C(C)C)C(C)C [PTH1-34]
stability in buffer [1]: ≤ 2 days

NQEQVSPLYKNRSVSEIQLMHNLGKHLNSMERVEWLRKKLQDVHNF [TG-pl-PTH1-34]
level of activity (reduction in reporter gene expression) [2]: the same as for the international standard
